According to the NIST ThermoML archive (doi:10.1016/j.jct.2012.08.026):
± gives the expanded uncertainty stated by the source.

Settings: 308.15 K, 101.33 kPa, Liquid; for viscosity: Capillary tube (Ostwald / Ubbelohde) method; for speed of sound: Pulse-echo method; for mass density: Vibrating tube method

Row | SMILES | viscosity | speed of sound | mass density
1 | CCC(O)CO (stereo not given) [1,2-butanediol] | 30.29 ± 0.56 mPa·s | 1422.6 ± 3.7 m/s | 988.25 ± 1.1 kg/m3
2 | CC(O)CCO (stereo not given) [1,3-butanediol] | 54.24 ± 1.1 mPa·s | 1496 ± 3.2 m/s | 991.28 ± 0.75 kg/m3
3 | OCCCCO [1,4-butanediol] | 47.38 ± 0.94 mPa·s | 1577.8 ± 3.2 m/s | 1003.95 ± 0.76 kg/m3
4 | CC(O)C(C)O (stereo not given) [2,3-butanediol] | 51.38 ± 1.1 mPa·s | 1456.6 ± 3.7 m/s | 990.72 ± 1.1 kg/m3
5 | O=C1CCCN1 [2-pyrrolidinone] | 8.922 ± 0.095 mPa·s | 1600 ± 3.3 m/s | 1097.14 ± 0.85 kg/m3
